{
  "source": "patent US12616691B2",
  "about": "“Use of fatty acid oxidation inhibitors as antimicrobials” (Washington University in St. Louis, priority 2018, dated 2026)",
  "key": {"[1]": {"tested_on": "Mtb (H37Rv)", "experiment": "MIC on Mtb (H37Rv) in liquid", "assay_type": "cell-based, Mycobacterium tuberculosis", "details": "for MIC: Mycobacterium tuberculosis"}, "[2]": {"target": "T1, long-chain 3-KAT (Rattus norvegicus, UniProt Q60587)", "T1 construct": "from tissue; host or cells: rat heart mitochondria", "T1 sequence (Q60587 35-475)": "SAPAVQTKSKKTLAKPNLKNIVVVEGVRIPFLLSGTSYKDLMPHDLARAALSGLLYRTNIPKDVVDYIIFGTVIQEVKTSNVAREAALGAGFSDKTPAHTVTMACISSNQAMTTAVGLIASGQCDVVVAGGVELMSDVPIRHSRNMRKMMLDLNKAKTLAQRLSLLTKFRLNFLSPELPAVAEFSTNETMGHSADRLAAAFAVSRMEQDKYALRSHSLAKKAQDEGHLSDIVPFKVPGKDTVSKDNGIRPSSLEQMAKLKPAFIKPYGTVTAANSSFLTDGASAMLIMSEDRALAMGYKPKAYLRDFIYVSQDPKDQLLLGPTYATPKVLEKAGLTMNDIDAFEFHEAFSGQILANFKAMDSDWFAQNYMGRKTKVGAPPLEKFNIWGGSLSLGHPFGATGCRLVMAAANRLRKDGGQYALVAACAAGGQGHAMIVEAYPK", "T1 sequence (Q64428 37-763 partner)": "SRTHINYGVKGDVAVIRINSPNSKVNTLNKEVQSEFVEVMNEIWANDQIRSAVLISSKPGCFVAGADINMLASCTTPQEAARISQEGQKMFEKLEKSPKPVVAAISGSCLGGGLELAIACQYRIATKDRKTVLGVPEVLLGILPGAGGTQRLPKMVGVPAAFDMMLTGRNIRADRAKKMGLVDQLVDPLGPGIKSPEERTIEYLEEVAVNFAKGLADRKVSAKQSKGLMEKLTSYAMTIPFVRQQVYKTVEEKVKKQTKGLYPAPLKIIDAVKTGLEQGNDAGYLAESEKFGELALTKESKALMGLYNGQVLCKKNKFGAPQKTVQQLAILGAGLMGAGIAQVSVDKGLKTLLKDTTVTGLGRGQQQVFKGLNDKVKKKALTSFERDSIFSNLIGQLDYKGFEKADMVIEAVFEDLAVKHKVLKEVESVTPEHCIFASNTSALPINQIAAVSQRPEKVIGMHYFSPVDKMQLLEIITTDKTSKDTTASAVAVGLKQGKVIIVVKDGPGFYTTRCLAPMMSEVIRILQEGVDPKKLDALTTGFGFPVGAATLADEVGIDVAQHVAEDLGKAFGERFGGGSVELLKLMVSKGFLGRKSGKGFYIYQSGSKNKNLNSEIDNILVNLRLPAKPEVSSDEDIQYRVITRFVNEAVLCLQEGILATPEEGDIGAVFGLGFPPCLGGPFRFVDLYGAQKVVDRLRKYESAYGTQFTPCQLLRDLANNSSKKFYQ", "details": "rat heart mitochondria; cited from earlier work"}, "[3]": {"tested_on": "mitochondrial ROS", "experiment": "Mitochondrial ROS (mitoSOX) in uninfected BMDMs", "assay_type": "cell-based", "details": "TMZ 500 nM 3 hours; antimycin 30 μM, rotenone 10 μM 30 minutes", "description": "Mitochondrial ROS production was measured in macrophages treated with TMZ in combination with ETC inhibitors antimycin and rotenone. Rotenone inhibits Complex I (NADH coenzymeQ reductase) and antimycin is an inhibitor of Complex III (coenzyme Q: cytochrome C oxidoreductase). Uninfected BMDMs were treated with 500 nM TMZ for 3 hours. Thirty minutes prior to termination of the experiment, antimycin (30 μM) and rotenone (10 μM) were added. Menadione (60 μM, 30 mins), which causes mitochondrial depolarization, was used as a positive control. Mitochondrial ROS production was increased in samples treated with TMZ, antimycin and rotenone (FIG. 14A). However, contrasting results were observed when TMZ was used in combination with the ETC inhibitors."}, "[4]": {"tested_on": "BMDMs", "experiment": "Macrophage viability (calcein-AM)", "assay_type": "cell-based, murine", "details": "72 hours", "description": "FIG. 4B depicts the effect of metformin and oxfenicine on macrophage viability. BMDMs were treated with the indicated concentration of compound for 72 hours, and viability was assessed using the cellular dye, calcein-AM, and normalized to untreated controls (--). Data are mean+/−SD.\nImportantly, plasma concentrations of TMZ in patients treated for angina (60 mg/day) are 70-100 nM, in line with the ability of TMZ to inhibit FAO in intact hearts at 100 nM. […] BMDMs were treated with the indicated concentration of compound for 72 hours, and viability was assessed using the cellular dye, calcein-AM, and normalized to untreated controls (--).\nThe antimicrobial activity and FAO inhibition was analyzed for cellular toxicity. BMDMs were treated with the indicated concentration of compound for 72 hours, and viability was assessed using the cellular dye, calcein-AM, and normalized to untreated controls (--)."}, "[5]": {"tested_on": "total cellular ROS", "experiment": "Total cellular ROS (CellRox staining) in macrophages", "assay_type": "cell-based", "description": "Total cellular ROS levels were compared in FAO inhibitor-treated and untreated samples using CellRox (Molecular Probes) staining. Macrophages were infected as previously described and co-localization of Mth with subunits of the NADPH oxidase (p40^phox and gp91^phox/NOX2) were monitored in FAO inhibitor-treated and untreated samples. To determine whether FAO inhibition induced oxidative stress in the host, uninfected RAW 264.7 cells were treated with TMZ at 5 nM and 500 nM and ETM at 50 μM and total cellular ROS was determined at 1, 3, and 24 hours post-treatment using CellRox dye. In parallel, tert-butyl hydroperoxide (0.5 mM tBHP) was used as a positive control. The samples were imaged using confocal microscopy and the fluorescence intensity of each cell was quantified."}, "[6]": {"parameters": "species or system mice", "details": "in vivo", "description": "A pharmacokinetics (PK) study of TMZ in C57BL/6 mice was performed. […] Therefore, subcutaneous osmotic pumps were used to maintain steady state plasma levels of TMZ. A second PK study was performed using subcutaneous osmotic pumps (Alzet Osmotic Pumps) to establish the optimal infusion rate and dosing for a subsequent efficacy study. TMZ steady state exposure in mice was successfully achieved with the use of subcutaneous osmotic pumps."}, "[7]": {"tested_on": "FAO", "details": "cited from earlier work"}, "[8]": {"tested_on": "IL-6, TNF-α, IL-1α/β, and IL-10", "experiment": "Cytokine levels in supernatants of BMDMs", "assay_type": "cell-based", "details": "wild type BMDMs, 5 nM, 24 and 72 hpi", "description": "(§1) Oxygen consumption rate (OCR) and extracellular acidification rate (ECAR) was measured using SeaHorse Analyzers in uninfected wild type and FAO-deficient carnitine palmitoyltransferase 2 KO (Cpt2 cKO) BMDMs treated with 5 nM TMZ. Additionally, whether FAO inhibitors promoted pro-inflammatory signaling was tested. Wild type macrophages were infected with H37Rv and treated with 5 nM TMZ for 24 and 72 hpi. Following filter sterilization, sample supernatants were examined for pro-inflammatory cytokines including, IL-1β, IL-6, TNF-α, and the anti-inflammatory cytokine IL-10."}, "[9]": {"tested_on": "LC3", "experiment": "Autophagy flux (LC3 with and without bafilomycin A1) in H37Rv-infected BMDMs", "assay_type": "cell-based", "details": "500 nM, 3 hours"}, "[10]": {"tested_on": "Mtb", "experiment": "MIC against Mtb in human THP1 cells", "assay_type": "cell-based, Mycobacterium tuberculosis", "description": "If CPT-1 and 3-KAT are the relevant antimicrobial targets, respectively, concordance in the potency of the compounds is anticipated in the assays. […] The MIC of TMZ against Mtb in human THP1 cells was approximately […]."}, "[11]": {"tested_on": "BMDMs", "experiment": "OCR and ECAR by SeaHorse metabolic flux assay in BMDMs", "assay_type": "cell-based", "details": "wild type BMDMs, 5 nM, 3 hours", "description": "as §1"}, "[12]": {"details": "human, in vivo, 20 mg; cited from earlier work"}, "[13]": {"tested_on": "M. abscessus", "experiment": "Intracellular growth of M. abscessus in RAW264.7 cells and BMDMs (CFU)", "assay_type": "cell-based, Mycobacterium abscessus", "details": "RAW264.7 cells and wt BMDMs, 500 nM"}, "[14]": {"tested_on": "H37Rv", "experiment": "Efficacy of TMZ in acute TB infection in mice (CFU in lungs and spleen)", "assay_type": "in vivo, Mycobacterium tuberculosis", "details": "16.8 mg/kg/day, 2 weeks"}, "[15]": {"tested_on": "gp91phox/NOX2", "experiment": "Co-localization of Mtb with NADPH oxidase subunit NOX2 in BMDMs", "assay_type": "cell-based", "details": "24 hours"}, "[16]": {"tested_on": "p62", "experiment": "Autophagy induction: p62 co-localization with Mtb and p62 puncta in BMDMs", "assay_type": "cell-based", "details": "5 nM", "description": "Wild type BMDMs were infected with H37Rv expressing DsRed at MOI 1:5 for 4 hours. After bacterial uptake, the culture medium was supplemented with TMZ (5 nm). At 24 hours post infection (hpi), samples were fixed and immunostained with p62 (green). Alternatively, bacterial numbers were enumerated by CFU at 3 days post infection (dpi). For IF, images were captured using a confocal microscope equipped with a 60× oil immersion objective lens. To quantify co-localation of Mtb and autophagosomes each bacteria was converted to a region of interest (ROI) and the mean fluorescence intensity of the p62 signal was measured. To assess autophagy induction, the total p62 puncta per cell in shapes that were untreated or treated with TMZ. IFN-γ, which activates autophagy, was used as a positive control."}, "[17]": {"tested_on": "FAO", "details": "murine and human monocyte-derived macrophages; cited from earlier work"}, "[18]": {"details": "Mtb (H37Rv) in liquid, read-out: MIC"}},
  "note": "Where two headings read alike, the source gives them in different places.",
  "data": [
    {"molecule": "CN(C)C(=N)N=C(N)N", "note": "[Metformin, metformin]", "values": [
      {"measurement": "MIC", "setting": "[1]; [18]", "value": "> 15000", "unit": "µM"}
    ]},
    {"molecule": "COc1ccc(CN2CCNCC2)c(OC)c1OC", "note": "[Trimetazidine, 1-(2,3,4-trimethoxybenzyl)piperazine]", "values": [
      {"measurement": "IC50", "setting": "[2]", "value": "~0.075", "unit": "µM"},
      {"measurement": "mitochondrial ROS production", "setting": "[3]", "value": "increased"},
      {"measurement": "macrophage toxicity", "setting": "[4]", "value": "not related to macrophage toxicity"},
      {"measurement": "MIC", "setting": "[1]; H37RV", "value": 1000, "unit": "µM"},
      {"measurement": "total cell ROS in Mtb-infected Atg5 KO BMDMs", "setting": "[5]; 3 hour treatment", "value": "increased ROS signal"},
      {"measurement": "total cell ROS in Mtb-infected Nox2 KO BMDMs", "setting": "[5]; 24 hours, 5 nM", "value": "significant increase in ROS"},
      {"measurement": "total cell ROS in Mtb-infected wild type BMDMs", "setting": "[5]; 24 hours, 5 nM", "value": "induced ROS"},
      {"measurement": "predicted free drug concentrations", "setting": "[6]; C57BL/6, mouse, 16.8 mg/kg/day", "value": 135, "unit": "nM"},
      {"measurement": "half-life", "setting": "[6]; mouse", "value": "less than an hour"},
      {"measurement": "concentration that inhibits FAO in intact hearts", "setting": "[7]", "value": 100, "unit": "nM"},
      {"measurement": "levels of IL-6, TNF-α, IL-1α/β, and IL-10", "setting": "[8]", "value": "No significant difference"},
      {"measurement": "autophagy flux", "setting": "[9]", "value": "No changes"},
      {"measurement": "MIC against Mtb in human THP1 cells", "setting": "[10]", "value": "approximately 50 nM"},
      {"measurement": "ECAR", "setting": "[11]", "value": "decrease"},
      {"measurement": "Cmax", "setting": "[12]", "value": 0.313, "unit": "µM"},
      {"measurement": "M. abscessus infection (CFU)", "setting": "[13]", "value": "significantly decreased infection"},
      {"measurement": "reduction in Mtb CFUs in the lungs", "setting": "[14]; C57Bl/6 mice", "value": "50-70%"},
      {"measurement": "bacterial burden in lung and spleen tissues", "setting": "[14]; vs untreated control mice", "value": "significantly reduced bacterial burden"},
      {"measurement": "co-localization of Mtb and NOX2", "setting": "[15]", "value": "increased"},
      {"measurement": "total number of p62 puncta in macrophages", "setting": "[16]", "value": "significantly increased"},
      {"measurement": "co-localization of H37Rv and p62", "setting": "[16]; 24 hpi", "value": "increased"}
    ]},
    {"molecule": "CCOC(=O)C1(CCCCCCOc2ccc(Cl)cc2)CO1", "note": "(centres unmarked) [Etomoxir, ethyl 2-[6-(4-chlorophenoxy)hexyl]oxirane-2-carboxylate]", "values": [
      {"measurement": "MIC", "setting": "[1]; [18]", "value": "> 250", "unit": "µM"},
      {"measurement": "direct effect on Mtb growth", "setting": "[1]; ten times the dose that inhibited intracellular Mtb", "value": "did not directly prevent Mtb growth"},
      {"measurement": "concentration that blocks FAO in macrophages", "setting": "[17]", "value": "10 to 25", "unit": "µM"}
    ]},
    {"molecule": "NNC(=O)c1ccncc1", "note": "[INH, isoniazid]", "values": [
      {"measurement": "MIC", "setting": "[1]; [18]", "value": "< 0.3", "unit": "µM"}
    ]},
    {"molecule": "C=C(C)[C@H]1Cc2c(ccc3c2O[C@@H]2COc4cc(OC)c(OC)cc4[C@@H]2C3=O)O1", "note": "[rotenone]", "values": [
      {"measurement": "mitochondrial ROS production", "setting": "[3]", "value": "increased"}
    ]},
    {"molecule": "C1CCC(C(CC2CCCCN2)C2CCCCC2)CC1", "note": "(centres unmarked) [Perhexiline, 2-(2,2-dicyclohexylethyl)piperidine]", "values": [
      {"measurement": "MIC", "setting": "[1]; [18]", "value": "> 100", "unit": "µM"}
    ]},
    {"molecule": "antimycin", "values": [
      {"measurement": "mitochondrial ROS production", "setting": "[3]", "value": "increased"}
    ]}
  ]
}
